According to patent publication US9469650B2, “Melampomagnolide B derivatives” (BOARD OF TRUSTEES OF THE UNIVERSITY OF ARKANSAS, priority 2013, dated 2016):

How the values were obtained:
MALME-3M [1] = experiment: panel of 60 human tumor cell lines, growth inhibition (Melanoma); conditions: MALME-3M; for GI50 / TGI: NCI five dose
UACC-62 [2] = experiment: panel of 60 human tumor cell lines, growth inhibition (Melanoma); conditions: UACC-62; for GI50 / TGI: NCI five dose
MALME-3M [3] = test system: MALME-3M
UACC-62 [4] = test system: UACC-62
RPMI-8226 = experiment: panel of 60 human tumor cell lines, growth inhibition (Leukemia); conditions: RPMI-8226; for GI50 / TGI: NCI five dose

C=C1C(=O)O[C@H]2[C@H]1CC/C(COC(=O)CCC(=O)N1CCC(C)CC1)=C\CC[C@@]1(C)O[C@@H]21 [JVM 2-70]
CC50 (OVCAR-8): 42.9 µM
Percent Growth (MALME-3M [1]; Log10 Concentration −4.0): −67%
Percent Growth (MALME-3M [1]; Log10 Concentration −5.0): −5%
Percent Growth (MALME-3M [1]; Log10 Concentration −6.0): 99%
Percent Growth (MALME-3M [1]; Log10 Concentration −7.0): 108%
Percent Growth (MALME-3M [1]; Log10 Concentration −8.0): 106%
GI50 (MALME-3M [1]): 2.95 µM
TGI (MALME-3M [1]): 8.96E−5
CC50 (SW-620): 42.6 µM
CC50 (T-47D): > 100 µM
CC50 (MOLT-4): > 100 µM
CC50 (HCT-15): 32.6 µM
CC50 (M14): 49.3 µM
CC50 (CCRF-CEM): 58.6 µM
CC50 (HOP-62): 74.9 µM
CC50 (SF-268): 69.1 µM
Percent Growth (UACC-62 [2]; Log10 Concentration −4.0): −87%
Percent Growth (UACC-62 [2]; Log10 Concentration −5.0): 33%
Percent Growth (UACC-62 [2]; Log10 Concentration −6.0): 92%
Percent Growth (UACC-62 [2]; Log10 Concentration −7.0): 94%
Percent Growth (UACC-62 [2]; Log10 Concentration −8.0): 97%
GI50 (UACC-62 [2]): 5.15 µM
TGI (UACC-62 [2]): 1.89E−5
CC50 (SK-MEL-5): 47.8 µM
CC50 (SK-MEL-28): 44.5 µM
CC50 (MDA-MB-231/ATCC): 52.8 µM
CC50 (A498): 45.2 µM
CC50 (HT29): 44.5 µM
CC50 (HCC-2998): 61 µM
CC50 (OVCAR-5): 49.9 µM
CC50 (NCI-H226): 76.1 µM
CC50 (MALME-3M [3]): 53.6 µM
CC50 (BT-549): 29.3 µM
CC50 (786-0): 58 µM
CC50 (U251): 59.7 µM
CC50 (NCI-H460): 89.4 µM
CC50 (RXF 393): 9.41 µM
CC50 (LOX IMVI): 41 µM
CC50 (UACC-62 [4]): 49.5 µM
CC50 (NCI-H322M): 65.1 µM
Percent Growth (RPMI-8226; Log10 Concentration −4.0): −34%
Percent Growth (RPMI-8226; Log10 Concentration −5.0): 28%
Percent Growth (RPMI-8226; Log10 Concentration −6.0): 96%
Percent Growth (RPMI-8226; Log10 Concentration −7.0): 98%
Percent Growth (RPMI-8226; Log10 Concentration −8.0): 101%
GI50 (RPMI-8226): 4.74 µM
TGI (RPMI-8226): 2.82E−5
CC50 (NCI-H522): 5.99 µM
CC50 (PC-3): 69.1 µM
CC50 (DU-145): 45.9 µM
CC50 (CAKI-1): 36.2 µM
CC50 (HOP-92): 36.4 µM
CC50 (NCI/ADR-RES): 96 µM
CC50 (UACC-257): 47 µM
CC50 (SNB-75): 57 µM
CC50 (SK-MEL-2): 61 µM
CC50 (A549/ATCC): 75.9 µM
CC50 (HS 578T): > 100 µM
CC50 (SNB-19): 63.4 µM
CC50 (TK-10): 36.3 µM
CC50 (SN12C): 51.9 µM
CC50 (K-562): > 100 µM
CC50 (MDA-MB-435): 61.9 µM

C=C1C(=O)O[C@H]2[C@H]1CC/C(COC(=O)NCCO)=C\CC[C@@]1(C)O[C@@H]21 [JVM 2-50]
CC50 (OVCAR-8): > 100 µM
Percent Growth (MALME-3M [1]; Log10 Concentration −4.0): −67%
Percent Growth (MALME-3M [1]; Log10 Concentration −5.0): 58%
Percent Growth (MALME-3M [1]; Log10 Concentration −6.0): 110%
Percent Growth (MALME-3M [1]; Log10 Concentration −7.0): 111%
Percent Growth (MALME-3M [1]; Log10 Concentration −8.0): 107%
GI50 (MALME-3M [1]): 11.5 µM
TGI (MALME-3M [1]): 2.91E−5
CC50 (SW-620): 74 µM
CC50 (T-47D): 87.4 µM
CC50 (MOLT-4): > 100 µM
CC50 (HCT-15): 57.5 µM
CC50 (M14): 88.3 µM
CC50 (CCRF-CEM): > 100 µM
CC50 (HOP-62): > 100 µM
CC50 (SF-268): 99.1 µM
Percent Growth (UACC-62 [2]; Log10 Concentration −4.0): −84%
Percent Growth (UACC-62 [2]; Log10 Concentration −5.0): 62%
Percent Growth (UACC-62 [2]; Log10 Concentration −6.0): 97%
Percent Growth (UACC-62 [2]; Log10 Concentration −7.0): 93%
Percent Growth (UACC-62 [2]; Log10 Concentration −8.0): 93%
GI50 (UACC-62 [2]): 12 µM
TGI (UACC-62 [2]): 2.65E−5
CC50 (SK-MEL-5): > 100 µM
CC50 (SK-MEL-28): 79.4 µM
CC50 (MDA-MB-231/ATCC): 75.5 µM
CC50 (A498): > 100 µM
CC50 (HT29): ≥ 100 µM
CC50 (HCC-2998): 77.2 µM
CC50 (OVCAR-5): 92.4 µM
CC50 (NCI-H226): > 100 µM
CC50 (MALME-3M [3]): 73.3 µM
CC50 (BT-549): 42.9 µM
CC50 (786-0): 66.4 µM
CC50 (U251): > 100 µM
CC50 (NCI-H460): > 100 µM
CC50 (RXF 393): 62.5 µM
CC50 (LOX IMVI): 57.1 µM
CC50 (UACC-62 [4]): 58.3 µM
CC50 (NCI-H322M): > 100 µM
Percent Growth (RPMI-8226; Log10 Concentration −4.0): −49%
Percent Growth (RPMI-8226; Log10 Concentration −5.0): 33%
Percent Growth (RPMI-8226; Log10 Concentration −6.0): 93%
Percent Growth (RPMI-8226; Log10 Concentration −7.0): 97%
Percent Growth (RPMI-8226; Log10 Concentration −8.0): 98%
GI50 (RPMI-8226): 5.14 µM
TGI (RPMI-8226): 2.51E−5
CC50 (NCI-H522): 9.13 µM
CC50 (PC-3): > 100 µM
CC50 (DU-145): 52.8 µM
CC50 (CAKI-1): 73.8 µM
CC50 (HOP-92): 42.3 µM
CC50 (NCI/ADR-RES): > 100 µM
CC50 (UACC-257): 63.5 µM
CC50 (SNB-75): > 100 µM
CC50 (SK-MEL-2): 94.4 µM
CC50 (A549/ATCC): > 100 µM
CC50 (HS 578T): > 100 µM
CC50 (SNB-19): > 100 µM
CC50 (TK-10): 52.3 µM
CC50 (SN12C): > 100 µM
CC50 (K-562): > 100 µM
CC50 (MDA-MB-435): 52 µM
